From paper PMC7570844, “Skin Damages—Structure Activity Relationship of Benzimidazole Derivatives Bearing a 5-Membered Ring System” (Molecules, 2020)
Converted amounts (≈) assume the structure as drawn. “And” between values parts separate entries of the source, which are not always exact repeats. Equal entries are not always repeated.

Assays:
[1] = tested on: herpes simplex virus-1 (KOS); assay: Antiviral activity in HEL cell cultures (CPE, MTS); assay type: cell-based; details: Human alphaherpesvirus 1, HEL cells
[2] = tested on: Microsporum canis; assay: Antidermatophyte plaque growth inhibition; assay type: cell-based; details: for IC50: M. canis growth, read-out: IC50; for inhibition at 100 µg/mL: M. canis, '+' has no key, read-out: Percent growth inhibition
[3] = tested on: HeLa cell cultures; details: human
[4] = tested on: human melanoma cells (SK-Mel 5); assay: Cell proliferation inhibition
[5] = tested on: herpes simplex virus-2 (G); assay: Antiviral activity in HEL cell cultures (CPE, MTS); assay type: cell-based; details: Human alphaherpesvirus 2; Herpes simplex virus-2, HEL cells
[6] = tested on: vesicular stomatitis virus; assay: microbe, parasite or virus in culture; assay type: cell-based; details: HeLa, read-out: Antiviral EC50
[7] = UV filtering parameters of cosmetic formulation on PMMA plates (modified Diffey-Robson); assay type: physicochemical
[8] = UV filtering parameters of compounds in solution (MeOH, 290-400 nm)
[9] = tested on: Epidermophyton floccosum; assay: Antidermatophyte plaque growth inhibition; assay type: cell-based; details: for IC50: E. floccosum growth, read-out: IC50; for inhibition at 100 µg/mL: E. floccosum, '+' has no key, read-out: Percent growth inhibition
[10] = tested on: vaccinia virus; assay: microbe, parasite or virus in culture; assay type: cell-based; details: Orthopoxvirus vaccinia, HEL, read-out: Antiviral EC50
[11] = tested on: human T-lymphocyte cells (CEM); assay: Cell proliferation inhibition
[12] = tested on: Coxsackie virus B4; assay: Antiviral activity in HeLa cell cultures (CPE, MTS); assay type: cell-based; details: Enterovirus B; Coxsackie virus B4, HeLa cells
[13] = tested on: human pancreatic carcinoma cells (Mia Paca-2); assay: Cell proliferation inhibition
[14] = tested on: Trichophyton tonsurans; assay: Antidermatophyte plaque growth inhibition; assay type: cell-based; details: for IC50: T. tonsurans growth, read-out: IC50; for inhibition at 100 µg/mL: T. tonsurans, '+' has no key, read-out: Percent growth inhibition
[15] = tested on: HEK293T (Normal Kidney Epithelial Cells); assay: Cell proliferation inhibition, non-cancer control cells; details: Homo sapiens, HEK-293T
[16] = tested on: herpes simplex virus-1 TK-KOS ACVr; assay: microbe, parasite or virus in culture; assay type: cell-based; details: Human alphaherpesvirus 1, HEL, read-out: Antiviral EC50
[17] = Ferric reducing antioxidant power (FRAP) test; details: mean ± SEM
[18] = tested on: Adeno virus-2; assay: Antiviral activity in HEL cell cultures (CPE, MTS); assay type: cell-based; details: Adeno virus-2, HEL cells
[19] = tested on: human cervical carcinoma cells (HeLa); assay: Cell proliferation inhibition
[20] = tested on: Microsporum gypseum; assay: Antidermatophyte plaque growth inhibition; assay type: cell-based; details: Nannizzia gypsea; for IC50: M. gypseum growth, read-out: IC50; for inhibition at 100 µg/mL: M. gypseum, '+' has no key, read-out: Percent growth inhibition
[21] = tested on: Respiratory syncytial virus; assay: microbe, parasite or virus in culture; assay type: cell-based; details: human respiratory syncytial virus, HeLa cells, read-out: Antiviral EC50
[22] = tested on: human embryonic lung (HEL) cell cultures
[23] = tested on: Trichophyton mentagrophytes; assay: Antidermatophyte plaque growth inhibition; assay type: cell-based; details: for IC50: T. mentagrophytes growth, read-out: IC50; for inhibition at 100 µg/mL: T. mentagrophytes, '+' has no key, read-out: Percent growth inhibition
[24] = tested on: Human Coronavirus (229E); assay: microbe, parasite or virus in culture; assay type: cell-based; details: HEL, read-out: Antiviral EC50
[25] = DPPH radical scavenging test; details: mean ± SEM; for DPPH (% Inhibition): tested at 1 mg/mL
[26] = tested on: M. gypseum, M. canis, T. mentagrophytes, T. tonsurans and E. floccosum; assay: Antidermatophyte activity, all five dermatophytes taken together; assay type: cell-based
[27] = tested on: Candida albicans (ATCC 10231); assay: Anti-Candida albicans broth microdilution MIC
[28] = Candida albicans, ATCC10231, 24 h

c1c[nH]c(-c2nc3ccccc3[nH]2)c1 [Compound 10, 2-(1H-pyrrol-2-yl)-1H-benzimidazole]
EC50 [1]: > 100 µM | IC50 [2]: 1.34 ± 0.02 µg/mL (≈ 7.31 µM) | inhibition at 100 µg/mL [2]: 96.8 ± 3.56% | Cytotoxic concentration [3]: > 100 µM | IC50 [4]: 9.7 ± 1.7 µM | EC50 [5]: > 100 µM | EC50 [6]: > 100 µM | SPF ([7]; 1% in formulation): 2.44 | UVA/UVB ([7]; 1% in formulation): 0.70 | UVAPF ([7]; 1% in formulation): 1.16 | λc ([7]; 1% in formulation): 341 nm | SPF ([7]; 2% in formulation): 2.72 | UVA/UVB ([7]; 2% in formulation): 0.73 | UVAPF ([7]; 2% in formulation): 1.32 | λc ([7]; 2% in formulation): 357 nm | SPF ([7]; 3% in formulation): 3.06 | UVA/UVB ([7]; 3% in formulation): 0.75 | UVAPF ([7]; 3% in formulation): 1.54 | λc ([7]; 3% in formulation): 364 nm | UVA/UVB [8]: 0.02 | UVAPF [8]: 1.16±0.05 | λc (critical wavelength) [8]: 325 nm | IC50 [9]: 1.07 ± 0.03 µg/mL (≈ 5.84 µM) | inhibition at 100 µg/mL [9]: 102 ± 4.92% | melting point: > 250 °C | EC50 [10]: > 100 µM | IC50 [11]: 14 ± 1 µM | EC50 [12]: > 100 µM | IC50 [13]: 15 ± 9 µM | IC50 [14]: 0.97 ± 0.06 µg/mL (≈ 5.29 µM) | inhibition at 100 µg/mL [14]: 96.97 ± 0.62% | IC50 [15]: 31 ± 3 µM | EC50 [16]: > 100 µM | FRAP [17]: 1085.57 ± 0.88 µmolTE/g | EC50 [18]: > 100 µM | IC50 [19]: 37 µM | IC50 [20]: 1.53 ± 0.05 µg/mL (≈ 8.35 µM) | inhibition at 100 µg/mL [20]: 99.1 ± 1.33% | EC50 [21]: > 100 µM | Cytotoxic concentration [22]: > 100 µM | IC50 [23]: 1.38 ± 0.08 µg/mL (≈ 7.53 µM) | inhibition at 100 µg/mL [23]: 96.3 ± 2.42% | EC50 [24]: > 100 µM | DPPH IC50 [25]: 64.098 µg/mL and 64.10 ± 3.21 µg/mL | Activity on dermatophytes (in words) ([26]; 100 µg/mL): fungicide activity | inhibition at 100 µg/mL ([26]; 100 µg/mL, all five dermatophytes, read-out: Percentage of growth inhibition over the five dermatophytes): ~100% | IC50 ([26]; all five dermatophytes, read-out: IC50 range over the five dermatophytes): 0.97 to 3.8 µg/mL (≈ 5.29 to 20.7 µM)

O=C(O)c1ccc2[nH]c(-c3cccs3)nc2c1 [Compound 15, 2-(thiophen-2-yl)-1H-benzimidazole-5-carboxylic Acid]
EC50 [1]: > 100 µM | inhibition at 100 µg/mL [2]: 20.3 ± 0.54% | Cytotoxic concentration [3]: > 100 µM | IC50 [4]: > 100 µM | EC50 [5]: > 100 µM | EC50 [6]: > 100 µM | SPF [8]: 6.40±0.12 | UVA/UVB [8]: 0.43 | UVAPF [8]: 1.42±0.11 | λc (critical wavelength) [8]: 342 nm | inhibition at 100 µg/mL [9]: 6.45 ± 2.98% | melting point: > 250 °C | EC50 [10]: > 100 µM | IC50 [11]: 50 ± 10 µM | EC50 [12]: > 100 µM | IC50 [13]: 80 ± 12 µM | inhibition at 100 µg/mL [14]: 4.48 ± 0.9% | IC50 [15]: > 100 µM | EC50 [16]: > 100 µM | FRAP [17]: 181.84 ± 2.66 µmolTE/g | EC50 [18]: > 100 µM | IC50 [19]: > 100 µM | inhibition at 100 µg/mL [20]: 2.14 ± 0.59% | EC50 [21]: > 100 µM | MIC [27, 28]: 16 µg/mL (≈ 65.5 µM) | Cytotoxic concentration [22]: > 100 µM | inhibition at 100 µg/mL [23]: < 0% | EC50 [24]: > 100 µM | DPPH (% Inhibition) [25]: 30.23 ± 1.45%

OC(Cn1cncn1)(Cn1cncn1)c1ccc(F)cc1F [Fluconazole, reference compound]
IC50 [2]: 29.6 ± 1.84 µg/mL (≈ 96.6 µM) | IC50 [9]: 0.08 ± 0.005 µg/mL (≈ 0.261 µM) | IC50 [14]: 19.4 ± 0.87 µg/mL (≈ 63.4 µM) | IC50 [20]: 18.5 ± 1.23 µg/mL (≈ 60.4 µM) | MIC ([27]; 48 h, tested 0.25-128 µg/mL, '-' = no activity): Neither synthesized compounds nor fluconazole showed activity | MIC [27, 28]: 0.5 µg/mL (≈ 1.63 µM) | IC50 [23]: 3.53 ± 0.26 µg/mL (≈ 11.5 µM)

O=C(O)c1ccc2nc(-c3ccco3)[nH]c2c1 [Compound 14, 2-(furan-2-yl)-1H-benzimidazole-5-carboxylic Acid]
EC50 [1]: > 100 µM | inhibition at 100 µg/mL [2]: 18.7 ± 0.59% | Cytotoxic concentration [3]: > 100 µM | IC50 [4]: > 100 µM | EC50 [5]: > 100 µM | EC50 [6]: > 100 µM | SPF [8]: 16.66±1.21 | UVA/UVB [8]: 0.5 | UVAPF [8]: 1.20±0.10 | λc (critical wavelength) [8]: 332 nm | inhibition at 100 µg/mL [9]: 6.45 ± 1.47% | melting point: > 250 °C | EC50 [10]: > 100 µM | IC50 [11]: 75 ± 35 µM | EC50 [12]: > 100 µM | IC50 [13]: > 100 µM | inhibition at 100 µg/mL [14]: < 0% | IC50 [15]: > 100 µM | EC50 [16]: > 100 µM | FRAP [17]: 26.67 ± 2.89 µmolTE/g | EC50 [18]: > 100 µM | IC50 [19]: > 100 µM | inhibition at 100 µg/mL [20]: < 0% | EC50 [21]: > 100 µM | MIC [27, 28]: 16 µg/mL (≈ 70.1 µM) | Cytotoxic concentration [22]: > 100 µM | inhibition at 100 µg/mL [23]: < 0% | EC50 [24]: > 100 µM | DPPH IC50 [25]: 1416.38 ± 21.40 µg/mL

O=S(=O)(O)c1ccc2[nH]c(-c3ccco3)nc2c1 [Compound 8, 2-(furan-2-yl)-1H-benzimidazole-5-sulfonic Acid]
EC50 [1]: > 100 µM | inhibition at 100 µg/mL [2]: < 0% | Cytotoxic concentration [3]: > 100 µM | IC50 [4]: ≥ 100 µM | EC50 [5]: > 100 µM | EC50 [6]: > 100 µM | SPF [8]: 10.96±0.54 | UVA/UVB [8]: 0.29 | UVAPF [8]: 1.33±0.05 | λc (critical wavelength) [8]: 342 nm | inhibition at 100 µg/mL [9]: < 0% | melting point: > 250 °C | EC50 [10]: > 100 µM | IC50 [11]: > 100 µM | EC50 [12]: > 100 µM | IC50 [13]: ≥ 100 µM | inhibition at 100 µg/mL [14]: < 0% | IC50 [15]: > 100 µM | EC50 [16]: > 100 µM | FRAP [17]: <LOQ * | EC50 [18]: > 100 µM | IC50 [19]: ≥ 100 µM | inhibition at 100 µg/mL [20]: 8 ± 2.44% | EC50 [21]: > 100 µM | Cytotoxic concentration [22]: > 100 µM | inhibition at 100 µg/mL [23]: < 0% | EC50 [24]: > 100 µM | DPPH (% Inhibition) [25]: 10.96 ± 0.56%
